Tests used:
[1] = system: A7r5 cells derived from the aorta of a rat; experiment: Inhibition of serum-stimulated proliferation of vascular smooth muscle cells, acid phosphatase activity; type: cell-based; settings: 48 hours after 2% FBS stimulation, n = 3, mean ± SD; for Acid Phosphatase Activity Absorbance (OD405): control 0.867 ± 0.089; for activity at 10 µM / activity at 30 µM / activity at 100 µM: Rattus norvegicus, A7R5, control 100 ± 10
Method: In order to assess the inhibitory effect of the compounds of the present invention on serum-stimulated proliferation of vascular smooth muscle cells in vitro, the compounds of Examples 1, 4, 20, 22, 27, 31, 36, 50, 52, and 58 were tested using A7r5 cells derived from the aorta of a rat (ATCC-CRL-1444).
Using DMEM medium containing 10% FBS, the cells were placed on 96-well microtiter plates with 5×10^3 cells/0.2 ml/ well and then incubated. The medium was exchanged for 2% FBS-containing DMEM medium on the third day and then for 0.2% FBS-containing DMEM medium on the fourth day from the start of the incubation. After 24-hour incubation in the 0.2% FBS-containing DMEM medium, the test compound was added. Each of the test compounds were added to the wells in the form of a solution or suspension in ethanol in an amount of 1 μl/well to final compound concentrations indicated in Table 3 below and the resultant ethanol concentration of 0.5% in each well. After additional 24-hour incubation, the medium was removed, and 0.2 ml of DMEM medium and the test compound were added thereto again, and the cells were stimulated by serum (2% FBS). Forty-eight hours after the stimulation, the acid phosphatase activity in the wells was measured by means of a kit (Abacus Cell Proliferation Kit, available from Clontech Lab. Inc. CA, U.S.A.) and evaluated as an indication of cell proliferation.

[2] = system: A7r5 cells derived from the aorta of a rat; experiment: Inhibition of serum- or PDGF-stimulated proliferation of vascular smooth muscle cells, [3H]-thymidine uptake; type: cell-based; settings: uptake in 5 hours, n = 3, mean ± SD; for Count by Liquid Scintillation Counter, FBS Stimulation ([3H]-thymidine uptake): 2% FBS, control 42789 ± 1063; for Count by Liquid Scintillation Counter, PDGF Stimulation ([3H]-thymidine uptake): PDGF-BB 4 ng/ml, control 24517 ± 2370
Method: In order to assess the inhibitory effect of a compound of the present invention on serum- or PDGF-stimulated proliferation of vascular smooth muscle cells in vitro, the compound obtained in Example 36 was tested using A7r5 cells derived from the aorta of a rat (ATCC-CRL-1444). Further, the effect was compared with that of α-tocopherol which was reported to have an inhibitory effect on proliferation of vascular smooth muscle cells (see J. Biol. Chem., 266, pp. 6188-6194 (1991)).
Using DMEM medium containing 10% FBS, the cells were placed on 96-well microtiter plates with 5×10^3 cells/0.2 ml/well and then incubated. The medium was exchanged for 2% FBS-containing DMEM medium on the third day and then for 0.2% FBS-containing DMEM medium on the fourth day from the start of the incubation. After 48-hour incubation in the 0.2% FBS-containing DMEM medium, the medium was removed, 0.2 ml of DMEM medium and the test compound were added, and the cells were stimulated with serum (2% FBS) or PDGF (PDGF-BB: human origin, available from Becton Dickinson Labware) (4 ng/ml) to proliferate. The test compound was added to the wells in the form of a solution or suspension in ethanol in amount of 1 μl well to final compound concentrations indicated in Table 2 below and the resultant ethanol concentration of 0.5% in each well. Eight hours after the stimulation, hydroxyurea was added to a final concentration of 1.5 mM to synchronize the cell cycle strictly. After additional 14-hour incubation, the medium containing hydroxyurea was removed and the cells were washed, and DMEM medium, the test compound and the proliferation stimulator were added thereto again. Further, [^3H]-thymidine (1 μCi/well; […]; available from NEN Research) was added. The [^3H]-thymidine uptake in 5 hours was measured as an indication of cell proliferation.

[3] = system: rabbit balloon injury models; experiment: In vivo effect in intimal thickening model (2), rabbit balloon injury; settings: cholesterol-fed rabbits, 15-week-old, 200 mg/kg oral once a day, four weeks after balloon treatment, mean ± SD
Method: In order to assess the inhibitory effect of the compound of the present invention on intimal thickening in vivo, the compound of Example 36 was tested using rabbit balloon injury models that were different from those used in Test Example 4 in week-age. Further, the effect was compared with that of Probucol which was reported to have an inhibitory effect on intimal thickening in balloon injury models (see Proc. Natl. Acad. Sci., U.S.A., 89, pp 11312-11316 (1992)).
Cholesterol-fed rabbits in groups of seven (JW: CSK male, 15-week-old) were used to prepare rabbit balloon injury models. Briefly, rabbits were fed with a high cholesterol diet (cholesterol content: 1%) for 2 weeks before balloon treatment. The animals were balloon-treated with a balloon catheter (4 French, available from Baxter) under anesthesia to peel the aortic intima 5 times. The animals were orally administered with the compound which was suspended in a 1% CMC solution (200 mg/kg). On the other hand, control animals were orally administered with a 1% CMC solution without the compound. The administrations were performed once a day from 1 week before the balloon treatment until the day before the dissection for evaluation. In order to evaluate the degree of balloon injury, a balloon-nontreated group (3 animals) was prepared.
After four weeks from the balloon treatment, specimens were taken from the aorta, stained with Elastica van Geison, and analyzed under an optical microscope. The image was processed to measure the thickness and area of the thickened intima. Averages of the thickness and area were obtained for each individual animal. The animals which died after the operation and those having a serum cholesterol level of 3500 mg/dl or higher were excluded from the measurement. The number of animals used for the evaluation was 4 or 5 per group.

| Compound | Acid Phosphatase Activity Absorbance (OD405) ([1]; 10 μM) | Acid Phosphatase Activity Absorbance (OD405) ([1]; 30 μM) | activity at 10 µM ([1]; 10 μM) | activity at 30 µM ([1]; 30 μM) | also measured |
| --- | --- | --- | --- | --- | --- |
| CCCCCC1(CCCCC)Cc2c(cc(C(C)(C)C)c(O)c2C(C)(C)C)S1 [Example 50, 4,6-Di-t-butyl-5-hydroxy-2,2-di-n-pentyl-2,3-dihydrobenzothiophene] | 0.699 ± 0.131 | 0.146 ± 0.026 | 81 ± 15% | 17 ± 3% |  |
| CC(C)(C)c1cc2occc2c(C(C)(C)C)c1O [Example 27, 4,6-Di-t-butyl-5-hydroxybenzofuran] | 0.553 ± 0.033 | 0.225 ± 0.064 | 64 ± 4% | 26 ± 7% |  |
| Cc1c(C)c2c(c(C)c1O)CC[C@@](C)(CCC[C@H](C)CCC[C@H](C)CCCC(C)C)O2 [α-Tocopherol, α-tocopherol, reference compound] |  |  |  |  | Count by Liquid Scintillation Counter, FBS Stimulation ([3H]-thymidine uptake) ([2]; 30 μM): 28058 ± 3912 CPM; Count by Liquid Scintillation Counter, PDGF Stimulation ([3H]-thymidine uptake) ([2]; 30 μM): 12493 ± 2978 CPM; Count by Liquid Scintillation Counter, FBS Stimulation ([3H]-thymidine uptake) ([2]; 100 μM): 25706 ± 4160 CPM; Count by Liquid Scintillation Counter, PDGF Stimulation ([3H]-thymidine uptake) ([2]; 100 μM): 12159 ± 2362 CPM |
| CC1(C)Cc2c(cc(C(C)(C)C)c(O)c2C(C)(C)C)O1 [Example 4, 4,6-Di-t-butyl-5-hydroxy-2,2-dimethyl-2,3-dihydrobenzofuran] | 0.606 ± 0.020 | 0.062 ± 0.026 | 70 ± 2% | 7 ± 3% |  |
| CC(C)(C)c1cc2c(c(C(C)(C)C)c1O)CC1(CCCCCC1)O2 [Example 20, 4,6-Di-t-butyl-5-hydroxy-2,3-dihydrobenzofuran-2-spiro-1′-cycloheptane] | 0.472 ± 0.031 | 0.105 ± 0.027 | 54 ± 4% | 12 ± 3% |  |
| CC1(C)Cc2c(cc(C(C)(C)C)c(O)c2C(C)(C)C)S1 [Example 52, 4,6-Di-t-butyl-5-hydroxy-2,2-dimethyl-2,3-dihydrobenzothiophene] | 0.690 ± 0.071 | 0.043 ± 0.008 | 80 ± 8% | 5 ± 1% |  |
| CC(C)(C)c1cc2c(c(C(C)(C)C)c1O)CC1(CCCCC1)S2 [Example 58, 4,6-Di-t-butyl-5-hydroxy-2,3-dihydrobenzothiophene-2-spiro-1′-cyclohexane] | 0.417 ± 0.125 | 0.045 ± 0.006 | 48 ± 14% | 5 ± 1% |  |
| CC(C)(C)c1cc2c(c(C(C)(C)C)c1O)CCO2 [Example 1, 4,6-Di-t-butyl-5-hydroxy-2,3-dihydrobenzofuran] | 0.727 ± 0.032 |  | 84 ± 4% |  | Acid Phosphatase Activity Absorbance (OD405) ([1]; 100 μM): 0.288 ± 0.073; activity at 100 µM ([1]; 100 μM): 33 ± 8% |
| CC(C)(Sc1cc(C(C)(C)C)c(O)c(C(C)(C)C)c1)Sc1cc(C(C)(C)C)c(O)c(C(C)(C)C)c1 [Probucol, reference compound] |  |  |  |  | Area of Intima ([3]; control 1.32 ± 0.22): 0.97 ± 0.28 mm²; Thickness of Intima ([3]; control 119 ± 19): 92 ± 17 μm |
| CC1(CO)Cc2c(cc(C(C)(C)C)c(O)c2C(C)(C)C)O1 (stereo not shown) [Example 48, 4,6-Di-t-butyl-5-hydroxy-2-hydroxymethyl-2-methyl-2,3-dihydrobenzofuran] |  |  |  |  | melting point: 126 to 128 °C |
| CCCOc1cc(C(C)(C)C)c(O)c(C(C)(C)C)c1C [Example 31, 2,6-Di-t-butyl-3-methyl-4-propyloxyphenol] | 0.756 ± 0.025 |  | 87 ± 3% |  | Acid Phosphatase Activity Absorbance (OD405) ([1]; 100 μM): 0.600 ± 0.102; activity at 100 µM ([1]; 100 μM): 69 ± 12% |
| CC(C)(C)c1cc2c(c(C(C)(C)C)c1O)CC1(CCOCC1)O2 [Example 22, 4,6-Di-t-butyl-5-hydroxy-2,3-dihydrobenzofuran-2-spiro-4′-tetrahydropyran] | 0.875 ± 0.013 |  | 101 ± 1% |  | Acid Phosphatase Activity Absorbance (OD405) ([1]; 100 μM): 0.777 ± 0.062; activity at 100 µM ([1]; 100 μM): 90 ± 7% |

Source: US6440999B1, “Intimal thickening inhibitory agent” (Chugai Seiyaku Kabushiki Kaisha, priority 1995, dated 2002)
